Experiments:
Assay type in all cases: cell-based
[1] = tested on: P2-seeded tau biosensor cells; experiment: EV purification and characterization (immunoblot of exosome markers, nanoparticle tracking analysis); conditions: 50 μM, 48 hours, nanoparticle tracking analysis
Source text: Extracellular vesicles (EVs) were purified from the cell culture medium using Exo-Quick-TC exosome purification kit (SBI, EXOTC10A-1) according to the manufacturing instructions. Immunoblot analysis of the EV fractions was done by 10-20% Tris-Glycine gel in non-reduced conditions, transferred to PVDF membrane and probed with antibodies against CD63 (ThermoFisher, 10628D), followed by HRP-conjugated secondary antibodies. Chemiluminescent signals were obtained with Super Signal West Femto substrate (Thermo Scientific Pierce 34,095) and detected using a BioSpectrum 600 imaging system and quantified using VisionWorks Version 6.6A software (UVP; Upland, Calif.). […] Inhibition of nSMase2 activity in cell extracts of confluent tau biosensors was confirmed by nSMase2 activity assay analogous to the one described in Example 2.
Our analysis confirmed that nSMase2 inhibitors suppress release of EVs from P2-seeded tau biosensor cells. […] EV samples purified from the same number of donor cells were analyzed per each group. Purified EVs were imaged by transmission electron microscopy (FIG. 5C). Size distribution of particles in the samples were assessed by nanoparticle tracking analysis (FIG. 5D). WB analysis for exosome markers also confirmed decrease in the exosome-specific marker expression (FIG. 5E).
Donor cells were grown in medium with exosome-depleted FBS (ThermoFisher, A2720803) for 48 hours with or without compounds, cell culture medium was collected and EVs purified using ExoQuick-TC kit (SBI biosciences). For quality control, small amounts of purified EVs were fixed on a copper mesh in glutaraldehyde/paraformaldehyde solution, stained with 2% uranyl acetate solution and imaged on a JEOL 100CX electron microscope at 29,000 times magnification. […] Chemiluminescent signals were obtained with Super Signal West Femto substrate (Thermo Scientific Pierce 34095) and detected using a BioSpectrum 600 imaging system and quantified using VisionWorks Version 6.6A software (UVP; Upland, Calif.).

[2] = tested on: HEK293T Tau RD P301S FRET biosensor cells; experiment: D+R functional assay: tau seed transfer from P2-seeded donor cells to DiD-labeled recipient cells; conditions: D+R model, flow cytometry (FIG. 4C)
Protocol: The compounds disclosed herein were further evaluated in the functional assays (“D+R approach”). The assays were based on the use of two cell populations—donor cells (D) and recipient cells (R). Recipients express a specific signal upon accumulation of protein aggregates (for example, FRET signal). The D+R approach can be divided into four steps (FIG. 4A).
In step 1, donor and recipient cells were plated in separation and protein aggregation is induced in the donor cells by using tissue-derived or synthetic proteopathic seeds (“seeding”) or by chemical and/or genetic methods. In step 2, either donor cells or recipient cells were labeled with a lipophilic dye (or by other cell labeling technology) in order to be able to distinguish between donor and recipients cells after trypsinization and re-plating of the donor and recipient cells together in step 3 (R+D). Alternatively, donor and recipient cells were physically divided by a permeable support (for example, Transwell). In any scenario, the cells were connected through the media and they grow for 24-60 hours with or without addition of pre-selected compounds. Efficiency of proteopathic seed transmission from donor cells to recipient cells can be analyzed using microscopy, flow cytometry, or imaging flow cytometry. […] Treatment of the tau biosensor cells with tau seeds lead to RD aggregation, as a result, CFP and YFP molecules come into close proximity and a FRET signal can be generated in the CFP/YFP pair upon illumination. The far-red fluorescent, lipophilic carbocyanine dye, DiD, was used for labeling recipient cells. This dye allowed for distinguishing between the DiD-negative donor and the DiD positive recipient cells without interference with the CFP/YFP FRET signal. The representative images of DiD-negative FRETpositive donor cell seeded with P2-derived tau seeds), DiD-positive FRET-negative recipient cell (DiD-R), and DiD positive FRET-positive recipient cell, which were growing in the presence of P2-D (DiD-R/R+D) are presented at the FIG. 4B. […]

[3] = tested on: HEK293T Tau RD P301S FRET biosensor cells; experiment: EV-mediated tau transfer assay
Protocol: For EV (extracellular vesicles)-mediated tau transfer assay, donor cells, transduced with AD-brain derived synaptosomal extracts (P2) or synthetic K18 seeds, were cultured for 48 hours in exosome-free medium with or without indicated concentration of tested compounds or DMSO for control, then medium was collected and EVs were purified using Exo-Quick-TC exosome purification kit (SBI, EXOTC10A-1) according to the manufacturing instructions. Naive recipient cells were plated at density 30,000 cells per well (96-well plates), grown for 12 hour in regular medium and then medium was exchanged to exosome-depleted medium, contained exosomes purified from donor cells (each well of recipients received amount of exosomes purified from one well of donor cells). Recipient cells were cultured in the presence of donor cell exosomes for 60 hrs. EV-mediated transfer assay scheme is presented at the FIG. 5A (right).
HEK293T Tau RD P301S FRET biosensor cells were growing in the Dulbecco's Modified Eagle's medium (DMEM) with higher glucose, 10% FBS, and 1% Penicillin-streptomycin at 37° C./5% CO2. Cells were plated in 10-sm dishes (3 million cells per dish in the regular medium) and grown for 12 hrs. Cells assigned to be donors were transduced with pulled synaptosomal (P2) extracts from AD cases using lipofectamine 2000, according to the published literature with minor modifications. We used 35 μg of pulled AD or control (NL) material per one 10-sm dish (TableS1). Defrosted P2 extracts were sonicated in water bath sonicator for 10 minutes, and diluted with Opti-MEM serum reduced medium to the final volume 200 μL per 10-sm dish. In a separate tube lipofectamine 2000 were combined with Opti-MEM medium, based on 25 μl of lipofectamine and 175 μL OptiMEM medium per each 10-sm dish, and incubated for 10 minutes at room temperature (RT). Each P2 or NL extract mix (200 μl) and prepared lipofectamine 2000 mix (200 μl) were combined and incubated for 20 min at RT. Each 10-sm dish with cell received 400 μl of the final liposomes in the total volume of medium 5 ml per dish. Cultures treated with equal amount of empty liposomes were used as an additional control group. Cells were incubated with liposomes for 20 hrs.
For “D+R” assay recipient cells were labeled with 1,1′-Dioctadecyl-3,3,3′,3′-tetramethylindodicarbocyanine (DiD) according to manufacturer's protocol (ThermoFisher V22887) on day 2. On day 3, donor cells were trypsinized (0.05% Trypsin/EDTA), washed with fresh exosome-free medium contained 10% of exosome-depleted FBS (ThermoFisher, A2720803). DiD-labeled recipient cells were also trypsinized and washed in exosome-free medium. […] FRET signal was detected using LSRII flow cytometer (BD biosciences). […]

O=C(/C=C/c1ccc(/C=C/C(=O)Nc2ccc(C3=NCCN3)cc2)cc1)Nc1ccc(C2=NCCN2)cc1 [GW4869]
release of EVs from P2-seeded donor cells [1]: released less EVs
tau seed transmission from donor cells to recipient cells [2]: restrained tau seed transmission from the donor cells to the recipient cells in a dose-dependent manner
EV-mediated transfer of tau to recipient cells ([3]; P2-seeded donor cells treated at 50 μM, 48 hours): decrease
reduction of EV-mediated transfer of tau seeds to naive recipient cells ([3]; inhibitor treatment of donor cells): 2.6 times

— US20200270216A1, “COMPOSITIONS AND METHODS FOR INHIBITING N-SMASE2” (The Regents of the University of California, priority 2017, published 2020)
